In patent publication US5773424A, “Treatment of toxoplasmosis” (priority 1994, dated 1998):
Entries after “also recorded” stand apart in the source; their conditions may differ. Where two headings read alike, the source gives them in different places.

Experiments:
[1] = tested on: extracts of Toxoplasma gondii; settings: 50 µM; for Percent conversion of NBMPR to NBMP: t. gondii extract; for Percent conversion of NBMPR to NBMPR-P / Percent conversion of NBMPR to nucleobase (NBMP): toxoplasma gondii
Description: (§2) Preparation of extracts. Extracts of T. gondii were prepared by homogenizing parasites or tissues in ice cold (3:1, v/w) 50 mM Tris-Cl buffer (pH 7.4) containing 1 mM EDTA, 1 mM dithiothreitol with a polytron homogenizer (Brinkmann, Westbury, N.Y.) and the homogenates were centrifuged at 105,000×g for 1 hour at 4° C. The supernatant fluids (cytosol) were collected and used as the enzyme source.
(§3) Conversion assays. To measure the percent conversion of NBMPR to NBMPR-P and nucleobase (NBMP) by extracts of Toxoplasma gondii and mouse spleen, 50 mM Tris-Cl (pH 7.4), 5 mM MgCl2, 2.5 mM ATP, 5 mM creatine phosphate, creatine phosphokinase, 50 μM [^3 H-(G)] NBMPR (1.95 μCi/nmol), and 10 μl of cytosol extract were reacted in a final volume of 20 μl and incubated at 37° C. Reaction was initiated by addition of extract and terminated by boiling for 3 minutes. In a second reaction, 25 mM KCN was added to the reaction mixture.
(§4) The plates for the assays of NBMPR were developed in n-butanol/ethyl acetate/NH4 /methanol (49:28:28:21, v/v/v/v). The Rf values were: NBMPR, 0.76; NBMPR-P, 0.50; NBMP, 0.89. The amounts of radioactivity in the substrate (nucleoside) and product (nucleobase and nucleotides) were calculated on a percentage basis using a Berthold LB-284 Automatic TLC-Linear Analyzer.

[2] = tested on: Toxoplasma gondii grown in human fibroblasts; experiment: Incorporation of radiolabeled uracil (parasite survival); assay type: cell-based; settings: for activity at 5 µM / activity at 10 µM / activity at 25 µM / activity at 50 µM: Toxoplasma gondii, Fibroblast, [5,6-3H]uracil incorporation, read-out: percent survival of Toxoplasma gondii grown in human fibroblasts
Description: Incorporation of Radiolabeled Uracil. […] Uptake and incorporation of radiolabeled uracil into nucleic acids of T. gondii were carried out, at least in triplicates, in tissue culture, using monolayers of human foreskin fibroblasts infected with T. gondii. The fibroblasts were cultured in no more than 30 passages in Dulbecco's modified Eagle medium, containing 100 units/mL penicillin G and 100 μg/mL streptomycin sulfate, and 10% FBS, pH 7.2. Briefly, confluent cells (4-5 day incubation) were cultured for 24 hours in the 24-well flat bottom microtiterplates (~5×10^5 /1 mL/well) and incubated at 37° C. in 5% CO2, 95% air to allow the cells to attach. The medium was then removed and the cells were infected with isolated T. gondii in medium with 3% FBS (1 parasite/cell). After 1 hour incubation, the cultures were washed with media with 10% FBS to remove extracellular parasites. FBS was maintained at a final concentration of 10%. […] After an additional 18 hours incubation, the medium was replaced with 1 mL drug free media containing […] (2 μCi/mL) and incubated for another 6 hours, after which the media was removed. The fibroblasts were released from the wells by trypsinization with the addition of 200 μL trypsin/EDTA (2.5×) to each well. After 10 minutes incubation, 1 mL of ice cold 10% trichloroacetic acid (TCA) was added to each well. The plates were then placed on a shaker to insure the detachment of the cells. The suspended contents of each well were filtered through GF/A 2.4 cm glass microfiber filters (Whatman, Hillsboro, Oreg.), which were prewashed each with 1 mL double distilled H2 O and dried. After filtration, the filters were washed with 10 mL methanol, left to dry, and then placed in scintillation vials containing 5 mL of Econo-Safe scintillation fluor (Research Products International Corp., Mount Prospect, Ill.), and radioactivity was counted using an LS5801 Beckman scintillation counter.

extracts of mouse spleen = settings: spleen cytosol extract, 50 µM
Description: as §2, §3, §4

[3] = tested on: extracts from different strains of Toxoplasma; experiment: Conversion of NBMPR to NBMPR-P in the presence of ATP or PRPP by extracts of different strains; assay type: biochemical, Toxoplasma gondii
Description: Maintenance of T. gondii. The wild type RH, the adenosine kinase deficient mutant ara-A^R (R), and the phosphoribosyltransferase deficient mutants (HGPRT^- and Tnx^R-1) strains of T. gondii were propagated by intraperitoneal passage in female CD1 mice (20-25 g). Mice were injected intraperitoneally (i.p.) with an inoculum (10^6 cells) of T. gondii contained in 0.2 ml of sterile phosphate buffered saline (PBS), pH 7.2, and were sacrificed after 2-3 days by inhalation of ether. The parasites were harvested from the peritoneal cavity by injection, aspiration and reinjection of 3-5 mL of PBS (2-3 times). The peritoneal fluid was examined microscopically to determine the concentration of T. gondii and to ascertain the extent of contamination by host cells.
Enzyme assay. […] Incubation was carried out at 37° C.
Phosphoribosyltransferase activity was measured by following the formation of [^3 H] NMMPR-P from [^3 H] NBMPR and 5-phosphoribosyl-1-pyrophosphate (PRPP). The standard reaction mixtures contained 50 mM Tris-Cl (pH 7.4), 10 μM [^3 H] NBMPR (55 Ci/mol), 4 mM PRibPP, 20 mM MgCl2, 50 mM KCI, and 50 μl of enzyme extract (4-8 μg of protein) in a final volume of 100 μl. Reactions were incubated at 37° C. and terminated in boiling water bath for 2 minutes. Precipitated proteins were removed by centrifugation. A 10 μl aliquot of the resulting supernatant was spotted on cellulose thin layer chromatography plates which were developed with 5% dibasic potassium phosphate. The average Rf values were as follows: NBMPR, 0.28; NBMP, 0.16; NBMPR-P, 0.44. The radioactivity was quantified using a Berthold TLC Linear Analyzer (Wallac, Inc., Gaithersburg, Md.). All assays were run under conditions in which velocity was linear with respect to time and amount of enzyme extract. Enzyme velocity was calculated by multiplying the fraction of nucleotide formed from nucleoside by the amount of nucleoside in the assay divided by the incubation time. Specific activity was estimated by dividing enzyme velocity by the amount of protein in the assay.

[4] = tested on: Toxoplasma gondii grown in human fibroblasts; experiment: Plaque formation in human fibroblasts; assay type: cell-based; settings: control (0 μM) 21 ± 3.5
Source text: To investigate the effect of metabolizing NBMPR on the survival of T. gondii, the number and size of plaque formation by T. gondii on human fibroblasts was investigated. NBMPR decreased the number and size of toxoplasma in human fibroblasts (Table 13).

[5] = Toxicity of compounds, MTT assay; assay type: cell-based, human; settings: human, foreskin fibroblasts
Description: (§1) Toxicity of compounds. Toxicity of the different doses of the various analogues were performed at least in triplicates, using a modification of the Microculture Tetrazolium (MTT) assay and uninfected monolayers of human foreskin fibroblasts. Briefly, confluent cells were incubated for at least 24 hours in the 96-well flat bottom microtiterplates (~10^5 /200 μL/well) and incubated at 37° C. in 5% CO2, 95% air to allow the cells to attach. The medium was then replaced with 200 μL of fresh medium. […] The cultures were then incubated for 48 hours, after which 50 μL of sterile MTT solution (2 mg/1 mL PBS) was added to each well. MTT solution was sterilized by filtration through 0.22 μm filters (Costar, Cambridge, Mass.). After 4 hours incubation, the medium was removed and 100 μL of dimethylsulfoxide (DMSO) was added to each well and the plates were shaken gently for 2-3 minutes to dissolve the formed formazan crystals. The absorbance was measured at 540 nm, using a computerized microtiterplate reader (Themomax, Molecular Division)

[6] = tested on: Toxoplasma gondii RH strain tachyzoites; experiment: Chemotherapy of Toxoplasma-infected mice; assay type: in vivo
Description: Chemotherapy of Toxoplasma-Infected Mice. Female CD-1 mice, approximately 22 g (Charles River Laboratories, Wilmington, Mass.), were infected with 200 RH strain tachyzoites/mouse by i.p. injection. The treatment group received 100 mg/kg NBMPR-P i.p. injections every 8 hours on Days 0, 2, 4 and 5, in proportion of 0.1 ml/10 g. Mice were maintained under controlled temperature (25° C.) and light (12/12 hours, light/dark), food and water ad libitum, and survival was monitored daily.
Each mouse was infected with 200 tachyzoites and the treatment group received 100 mg/kg NBMPR-P i.p. injections every 8 hours on Days 0, 2, 4 and 5 in proportion of 0.1 ml/10 g. The survivorship of the treated mice can be improved by manipulation of the dose and regimen of NBMPR.

[7] = tested on: uninfected human foreskin fibroblasts; experiment: Toxicity of compounds, MTT assay; assay type: cell-based
Description: as §1

[8] = survivors/total, 100 mg/kg i.p. every 8 hours on Days 0, 2, 4 and 5

Compound: O=[N+]([O-])c1ccc(CSc2ncnc3c2ncn3[C@@H]2O[C@H](CO)[C@@H](O)[C@H]2O)cc1 [Compound 21, 6-(p-Nitrobenzyl)mercaptopurine riboside (NBMPR)]
- Percent conversion of NBMPR to NBMP ([1]; 0.25 h): 0.9 ± 0.3%
- Percent conversion of NBMPR to NBMP ([1]; 0.5 h): 2.8 ± 3.8%
- Percent conversion of NBMPR to NBMP ([1]; 1 h): 4.0 ± 1.3%
- Percent conversion of NBMPR to NBMP ([1]; 2 h): 9.5 ± 1.3%
- Percent conversion of NBMPR to NBMP ([1]; 4 h): 14.3 ± 3.3%
- Percent conversion of NBMPR to NBMPR-P ([1]; cytosol extract with kcn, 0.25 h): 0.5 ± 0.1%
- Percent conversion of NBMPR to NBMPR-P ([1]; cytosol extract with kcn, 0.5 h): 1.1 ± 0.1%
- Percent conversion of NBMPR to NBMPR-P ([1]; cytosol extract with kcn, 1 h): 3.7 ± 2.5%
- Percent conversion of NBMPR to NBMPR-P ([1]; cytosol extract with kcn, 2 h): 5.8 ± 0.7%
- Percent conversion of NBMPR to NBMPR-P ([1]; cytosol extract with kcn, 4 h): 11.8 ± 4.8%
- Percent conversion of NBMPR to NBMPR-P ([1]; cytosol extract, 0.25 h): 2.1 ± 0.5%
- Percent conversion of NBMPR to nucleobase (NBMP) ([1]; cytosol extract, 0.25 h): 8.0 ± 0.4%
- Percent conversion of NBMPR to NBMPR-P ([1]; cytosol extract, 0.5 h): 3.2 ± 0.4%
- Percent conversion of NBMPR to nucleobase (NBMP) ([1]; cytosol extract, 0.5 h): 7.8 ± 3.7%
- Percent conversion of NBMPR to NBMPR-P ([1]; cytosol extract, 1 h): 7.8 ± 1.5%
- Percent conversion of NBMPR to nucleobase (NBMP) ([1]; cytosol extract, 1 h): 14.8 ± 1.2%
- Percent conversion of NBMPR to NBMPR-P ([1]; cytosol extract, 2 h): 9.4 ± 1.0%
- Percent conversion of NBMPR to nucleobase (NBMP) ([1]; cytosol extract, 2 h): 9.4 ± 2.8%
- Percent conversion of NBMPR to NBMPR-P ([1]; cytosol extract, 4 h): 15.1 ± 4.4%
- Percent conversion of NBMPR to nucleobase (NBMP) ([1]; cytosol extract, 4 h): 10.4 ± 6.2%
- activity at 5 µM [2]: 74.3%
- activity at 10 µM [2]: 55.5%
- activity at 25 µM [2]: 23.1%
- activity at 50 µM [2]: 6.7%
- Percent conversion of NBMPR to NBMPR-P (extracts of mouse spleen; 0.25 h): 0%
- Percent conversion of NBMPR to nucleobase (NBMP) (extracts of mouse spleen; 0.25 h): 0%
- Percent conversion of NBMPR to NBMPR-P (extracts of mouse spleen; 0.5 h): 0%
- Percent conversion of NBMPR to nucleobase (NBMP) (extracts of mouse spleen; 0.5 h): 0%
- Percent conversion of NBMPR to NBMPR-P (extracts of mouse spleen; 1 h): 0%
- Percent conversion of NBMPR to nucleobase (NBMP) (extracts of mouse spleen; 1 h): 0%
- Percent conversion of NBMPR to NBMPR-P (extracts of mouse spleen; 2 h): 0%
- Percent conversion of NBMPR to nucleobase (NBMP) (extracts of mouse spleen; 2 h): 0%
- Percent conversion of NBMPR to NBMPR-P (extracts of mouse spleen; 4 h): 0%
- Percent conversion of NBMPR to nucleobase (NBMP) (extracts of mouse spleen; 4 h): 0%
- Percent conversion of NBMPR to NBMPR-P ([3]; strain Ara-A^R, +ATP): 0%
- Percent conversion of NBMPR to NBMPR-P ([3]; strain Ara-A^R, +PRPP): 3.8 ± 0.2%
- Percent conversion of NBMPR to NBMPR-P ([3]; strain HGPRT^-, +ATP): 2.6 ± 1.3%
- Percent conversion of NBMPR to NBMPR-P ([3]; strain HGPRT^-, +PRPP): 0%
- Percent conversion of NBMPR to NBMPR-P ([3]; strain RH, +ATP): 0.7 ± 0.2%
- Percent conversion of NBMPR to NBMPR-P ([3]; strain RH, +PRPP): 4.3 ± 0.3%
- Percent conversion of NBMPR to NBMPR-P ([3]; strain Thx^R-1, +ATP): 2.0 ± 0.6%
- Percent conversion of NBMPR to NBMPR-P ([3]; strain Thx^R-1, +PRPP): 0%
- Number of Plaques ([4]; NBMPR 33 μM): 23 ± 0.7
- Number of Plaques ([4]; NBMPR 100 μM): 3 ± 1.4
- viability at 48 h, 5 µM [5]: 98.8%
- viability at 48 h, 10 µM [5]: 97.1%
- viability at 48 h, 25 µM [5]: 96.3%
- viability at 48 h, 50 µM [5]: 95.4%

Compound: O=[N+]([O-])c1ccc(CSc2ncnc3c2ncn3[C@@H]2O[C@H](COP(=O)(O)O)[C@@H](O)[C@H]2O)cc1 [NBMPR-P, 6-[4-nitrobenzylthio]-9-β-D-ribofuranosyl purine 5'-monophosphate]
- activity at 5 µM [2]: 75.3%
- activity at 10 µM [2]: 53.3%
- activity at 25 µM [2]: 21.4%
- activity at 50 µM [2]: 10.2%
- Effect on T. gondii grown in human fibroblasts, in words ([2]; in vitro): inhibited; also recorded: kill T. gondii grown in human fibroblasts in a dose dependent manner; also recorded: effectively eliminate T. gondii parasites
- life span of infected mice ([6]; increased from 6 days without treatment): 8 days
- Survival Day 7 [6, 8]: 3/3
- Survival Day 8 [6, 8]: 2/3
- Survival Day 9 [6, 8]: 0/3
- Survival Day 6 ([6]; survivors/total, 100 mg/kg i.p. every 8 hours on Days 0, 2, 4 and 5, untreated 0/3): 3/3
- viability at 48 h, 5 µM ([5]; 5 μM, MTT, 48 hours, read-out: percent survival of uninfected human fibroblasts): 103%
- viability at 48 h, 10 µM ([5]; 10 μM, MTT, 48 hours, read-out: percent survival of uninfected human fibroblasts): 94.6%
- viability at 48 h, 25 µM ([5]; 25 μM, MTT, 48 hours, read-out: percent survival of uninfected human fibroblasts): 93.6%
- viability at 48 h, 50 µM ([5]; 50 μM, MTT, 48 hours, read-out: percent survival of uninfected human fibroblasts): 96.1%
- Effect on host (mammalian) cells, in words ([7]; doses up to 100 μM): did not affect host cells; also recorded: without affecting mammalian cells
- Toxicity to host cells (human fibroblasts), in words ([7]; therapeutic doses (5-50 μM tested)): no significant toxic effect
